Measurements reported in publication PMC10326281, “Insights into the mechanisms governing P01 scorpion toxin effect against U87 glioblastoma cells oncogenesis” (Frontiers in Pharmacology, 2023).
Values after ≈ are worked out from the molar mass of the structure shown. Where a SMILES comes first, the peptide text is derived from it. Bridges are numbered along the chain shown (N, C = ends).

Tests used:
U87 glioblastoma cells [1] = assay: Cell proliferation test (crystal violet), U87; assay type: cell-based, human
Description: (§1) The ATCC (American Type Culture Collection, Rockville, MD, United States) cancer cell lines U87 (glioblastoma), MDA-MB231 (breast cancer) and LS174 (colon adenocarcinoma) were routinely cultured in DMEM supplemented with 10% fœtal bovine serum (FBS), 1% l-glutamine and 100 IU/mL penicillin/streptomycin. […] Rat SK2 cDNA cloned into pJA5 plasmid was a gift from Dr. Skolnik (university Langone Medical center, New York). Human SK3 cDNA cloned into Pipru vector was a king gift from Pr. Soriani (Université Côte d’Azur, CNRS, Inserm, Nice, France).
The effect of the P01 peptide on cell proliferation was studied. The human cell lines U87, MDA-MB231 or LS174 (5,000 cells per well) were treated with 2; 5 and 10 μg/mL of P01 peptide. The plates were placed at 37°C for 72 h. Cellular proliferation was quantified at 560 nm by a spectrophotometer (Thermo-Multiskan EX, Shanghai, China) after treatment with 1% glutaraldehyde and staining with 0.1% crystal violet.
Every 24 h, a series of wells was washed with PBS, the cells were fixed with 1% glutaraldehyde, and preserved in PBS to follow the kinetics of proliferation. After 72 h, the cells were stained with crystal violet 0.1% and quantified by measuring the absorbance at 560 nm using a spectrophotometer (Thermo-Multiskan EX, Shanghai, China).

U87 glioblastoma cells [2] = assay: Cell migration assay (modified Boyden chamber), U87; assay type: cell-based, human
Description: as §1
Cell migration assay was performed using modified Boyden chamber (NeuroProbe Inc., Bethesda, MD, United States) as previously described ([Sarray et al., 2007]). Membranes were coated with fibrinogen (Fg) (50 μg/mL), fibronectin (Fn) (10 μg/mL), collagen type I (Coll-I) (50 μg/mL) for U87, MDA-MB231 and LS174 cells respectively, for 2 h at 37°C. Cells were harvested as a single cell suspension (10^6 cells/mL) and treated with P01 at 50 μg/mL. Then added to pre-coated membranes and allowed to migrate for 5 h at 37°C in Boyden chamber. Cells were fixed on the underside of the membrane, stained by 0.1% crystal violet and migration was quantified by measuring the absorbance at 560 nm using a spectrophotometer (Thermo-Multiskan EX, Shanghai, China).

## CC[C@H](C)[C@H](NC(=O)[C@@H]1CCCN1C(=O)[C@H](CCC(=O)O)NC(=O)[C@@H]1CSSC[C@@H]2NC(=O)[C@H](Cc3c[nH]cn3)NC(=O)[C@H](CCC(=O)O)NC(=O)[C@@H]3CCCN3C(=O)[C@@H]3CSSC[C@H](NC(=O)[C@H](CCCCN)NC(=O)[C@H](CC(=O)O)NC(=O)[C@H](CC(N)=O)NC(=O)[C@H](CC(=O)O)NC(=O)[C@H](CSSC[C@H](NC(=O)[C@H](CO)NC(=O)[C@@H](N)C(C)C)C(=O)N[C@@H](CCC(=O)O)C(=O)N[C@@H](CC(=O)O)C(=O)N3)NC(=O)[C@H](CCCCN)NC(=O)[C@H](C)NC(=O)[C@H](CCC(N)=O)NC(=O)[C@H](C)NC(=O)[C@H](CCCCN)NC(=O)[C@H](CCC(N)=O)NC(=O)[C@H]([C@@H](C)O)NC(=O)[C@H](CO)NC2=O)C(=O)N[C@@H](C(C)C)C(=O)N1)C(=O)O [P01] (H-VSCEDCPEHCSTQKAQAKCDNDKCVCEPI-OH; disulfide 3-19, 6-24, 10-26 (inferred); N-terminus and C-terminus assumed)
U87 glioblastoma cells [1]; 72 h of incubation
  IC50 (viability/proliferation): 10 µg/mL (≈ 3.15 µM)
U87 glioblastoma cells [1]; P01 at 10 μg/mL, time course to 72 h, n = 3
  kinetic effect on proliferation: inhibition appeared after 48 h of treatment
U87 glioblastoma cells [2]; 50 μg/mL, 5 h at 37°C, fibrinogen 50 μg/mL coating, n = 3
  inhibition of migration: 48%
U87 glioblastoma cells [2]; Boyden chamber, 5 h
  IC50 (migration): 50 µg/mL (≈ 15.7 µM)
